The values that follow come from patent US4952580A, “Pesticidal polyhaloalkene derivatives” (priority 1988, dated 1990).

Test [1] has as its system cyst nematode. Description: Cyst Nematode Test. The format is in vivo. As to conditions: read-out: Percent Control; for pest or weed control at 5 ppm: Table 6, rate 5 ppm. On the procedure:
(§1) Compounds of this invention were tested as follows for nematicidal and anthelmintic activity as dust formulations (initial and residual activity) and as acetone/water formulations (systemic activity). The formulations are described above.
The procedures was substantially the same as described in the stunt nematode test except soybean seedlings were used. "Percent Control" (Table 6 appended) is as defined in the stunt nematode test results.

The subject of test [2] is root-knot nematode. Description: Soil Mobility against root-knot nematode. The format is in vivo, Meloidogyne incognita. As to conditions: 336 h. Summed up: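 Soil mobility of the nematicidal test material was evaluated by placing treated, nematode-infested soil in 8 cm plastic pots stacked above two or more pots of untreated infested soil, each containing a 10 cm^3 sand layer and filter paper discs. Fifteen cm of water was dripped through, pots drained 16-18 hours, then were planted with cucumber or tomato seedlings and scored for Percent Control.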

For test [3], the system named is root-knot nematode (Meloidogyne incognita). Nature of the test: Initial Root-Knot Nematicidal Activity. The format is in vivo. As to conditions: 336 h, read-out: Percent Control; for pest or weed control at 0.078 ppm: Table 2, Application Rate 0.078 ppm; for pest or weed control at 0.312 ppm: Table 2, Application Rate 0.312 ppm; for pest or weed control at 0.625 ppm: Table 2, Application Rate 0.625 ppm; for pest or weed control at 1.25 ppm: Table 2, Application Rate 1.25 ppm; for pest or weed control at 2.5 ppm: Table 2, Application Rate 2.5 ppm; for pest or weed control at 0.313 ppm: Table 2, Application Rate 0.313 ppm. Summed up: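 Compound incorporated into Meloidogyne incognita-infested soil at 10 ppm to 0.078 ppm, then planted with tomato or cucumber seedlings. Root galling scored two weeks after planting as a knot index and converted to percent control, given as averages.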

Test [4] deals with root-knot nematode. Nature of the test: Residual Root-Knot Nematicidal Activity. The format is in vivo, Meloidogyne incognita. As to conditions: read-out: Percent Control. On the procedure:
as §1
The ability of nematicidal compounds of the invention to control root-knot nematode infestations in soil over a period of time after treatment was evaluated. Dust formulations of test compound (5%) were incorporated into soil samples at test compound rates of 5 and 10 ppm. Subsequently, the treated soil samples were inoculated with nematode inoculum at weekly intervals, and Knot Index and Percent Control determined on seedlings planted in the soil samples. Specifically, soil treated with test compound was placed in 7.6 cm diameter fiber pots and stored in a greenhouse. At one, two and four weeks post-treatment, the appropriate number of pots was infested with root-knot nematode eggs and larvae. A cucumber or tomato seedling was planted in each pot and evaluated approximately two weeks after the soil infestation to obtain the test results reported in Tables 3 and 3a appended.

Test [5] relates to lesion nematode. Description: Lesion Nematode Test. The format is in vivo. As to conditions: Table 5, read-out: Percent Control; for pest or weed control at 2.5 ppm: rate 2.5 ppm. As for the experimental part:
as §1
The procedure was substantially the same as in the stunt nematode test described above except that pea seedlings were used. The results (Table 5 appended) show good control with many of the compounds at the application rates tested as compared with untreated samples (no control). "Percent Control" is defined as follows: [formula]

Test [6] deals with Caenorhabditis elegans. Description: C. Elegans Nematode Screening Test and Evaluation (in-vitro). As to conditions: Caenorhabditis elegans; for inhibition at 5 ppm / inhibition at 1.25 ppm / inhibition at 2.5 ppm: read-out: Percent Inhibition of Reproduction; for mortality at 5 ppm / mortality at 1.25 ppm / mortality at 2.5 ppm: read-out: Percent Mortality. Summed up:
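Worms (10-15 per well) in buffer with E. coli food, ampicillin and mycostatin; compound added in DMSO, 2-3 replicates per rate. Incubated 5-6 days at 20° C. Population development scored against untreated wells, noting effects such as reduced egg hatch or molting disruption.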

Test [7] has as its system stunt nematode. Nature of the test: Stunt Nematode Test. The format is in vivo. As to conditions: 672 h, Table 4a; rate 5 ppm; read-out: Percent Control. On the procedure: as §1
The procedure was substantially the same as in the […] seedling, with subsequent inoculation of the soil with combined larvae and adult stunt nematodes. The samples were evaulated approximately four weeks after infestation. […] "Percent control" means the difference between average population counts between untreated and treated samples, divided by average population count of untreated sample, multiplied by 100.

Test [8] relates to root-knot nematode. Description: Systemic Activity (basipetal, foliar spray) against root-knot nematode. The format is in vivo, Meloidogyne incognita. As to conditions: 336 h, read-out: Percent Control. As for the experimental part: as §1
Compounds of the invention were tested for basipetal systemic activity against the root-knot nematode. In this test, tomato plants are grown in 10.2 cm diameter fiber pots containing steam-pasteurized soil mix (50%, soil, 50% sand) until 4-6 true leaves appear. Three of the pots are then placed on a turntable in a spray hood and the plants sprayed with 50 ml of water/acetone solution containing the test compound. The soil surface is covered during the spraying to prevent spraying of the soil. After treatment, the potted plants are placed in a lighted drying chamber. The plants are then grown in a growth chamber at 25° C. for three days and inoculated with a standard nematode culture by incorporating the inoculum into the top cm of soil in the pots. The plants are returned to the growth chamber for about two weeks at which time the pots are allowed to dry until the plants begin to wilt. The roots are shaken free of soil and the degree of galling (swelling) noted as compared to galling of untreated control plants. The results are expressed as Knot Index and Percent Control as defined in the initial root-knot nematode activity tests reported above in Table 2.

[9] abbreviates: 672 h, Table 3, inoculation 4 weeks after treatment.
Where [10] appears, read: Table 7, 30 ppm, Bottom container, read-out: Percent Control.
Where [11] appears, read: Table 7, 30 ppm, Middle container, read-out: Percent Control.
The mark [12] stands for this setting: 168 h, Table 3, inoculation 1 week after treatment.
Setting [13] is: 336 h, Table 3, inoculation 2 weeks after treatment.

Structures are written as SMILES. Like-named read-outs stand apart in the source and are kept apart here.

With `FC(F)=C(F)CCSc1nc(Cl)ns1` [Compound 8, 3-chloro-5-(3,4,4-trifluoro-3-butenylthio)-1,2,4-thiadiazole], the pest or weed control at 5 ppm in test [1] came out at 92%. Further, the pest or weed control at 5 ppm in test [2] (Table 7, 5 ppm, Bottom container, read-out: Percent Control) was 96%. Further, the pest or weed control at 5 ppm in test [2] (Table 7, 5 ppm, Middle container, read-out: Percent Control) was found to be 100%. The pest or weed control at 5 ppm in test [2] (Table 7, 5 ppm, Top container, read-out: Percent Control) worked out at 100%. In test [3], the pest or weed control at 0.078 ppm stood at 58%, the pest or weed control at 0.312 ppm worked out at 100%, the pest or weed control at 0.625 ppm is 100% and the pest or weed control at 1.25 ppm was 100%. For the same molecule, in test [3], the pest or weed control at 2.5 ppm came out at 100% and the pest or weed control at 0.156 ppm was found to be 95%. For the same molecule, the pest or weed control at 5 ppm in test [4] (setting [9]) is 98%.

As to `O=C(CSCCC(F)=C(F)F)OCCC(F)=C(F)F` [Compound 18, (3,4,4-trifluoro-3-butenyl) (3,4,4-trifluoro-3-butenylthio)acetate], the pest or weed control at 5 ppm amounted to 0% in test [5] (rate 5 ppm); 8% in test [1]; 99% in test [3] (Table 2, Application Rate 5.0 ppm). The pest or weed control at 30 ppm amounted to 25% in test [2] (setting [10]); 25% in test [2] (setting [11]); 33% in test [2] (read-out: Percent Control, Table 7, 30 ppm, Top container). Further, in test [3], the pest or weed control at 0.313 ppm is 0%. For the same molecule, in test [3], the pest or weed control at 0.625 ppm is 19%. In addition, in test [3], the pest or weed control at 1.25 ppm amounted to 38%. Besides, the pest or weed control at 10 ppm in test [3] (Table 2, Application Rate 10.0 ppm) is 100%; in test [4] (setting [12]) it was 0%; in test [4] (setting [13]), 0%; in test [4] (setting [9]), 0%.

On to `O=C(OCCC(F)=C(F)F)c1ccc([N+](=O)[O-])o1` [Compound 21, (3,4,4-trifluoro-3-butenyl) 5-nitro-2-furancarboxylate], for which the values for the pest or weed control at 2.5 ppm in test [5], in test [1] and in test [3] were 54%, 33% and 64%, respectively. Moreover, the pest or weed control at 30 ppm stood at 99% in test [2] (setting [10]); 96% in test [2] (setting [11]); 100% in test [2] (Table 7, 30 ppm, Top container, read-out: Percent Control). Moreover, the pest or weed control at 0.313 ppm in test [3] stood at 0%. Also, in test [3], the pest or weed control at 0.625 ppm was 8%. Moreover, in test [3], the pest or weed control at 1.25 ppm is 31%. In addition, the pest or weed control at 5 ppm was found to be 13% in test [4] (setting [12]), 8% in test [4] (setting [13]) and 0% in test [4] (setting [9]).

For the molecule `FC(F)=C(F)CCSc1nnc(SCc2ccccc2)s1` [Compound 32, 2-phenylmethylthio-5-(3,4,4-trifluoro-3-butenylthio)-1,3,4-thiadiazole], the pest or weed control at 1.25 ppm in test [5] (rate 1.25 ppm) was found to be 0%; in test [3], 99%. In addition, the results for the pest or weed control at 2.5 ppm in test [5] and in test [3] were 28% and 100%, respectively. The pest or weed control at 0.625 ppm in test [5] (rate .625 ppm) worked out at 0%; in test [3], 97%. For the same molecule, the inhibition at 5 ppm in test [6] (Table 9 screen) was 100%. The mortality at 5 ppm stood at 100% in test [6] (Table 9 screen) and 8% in test [6] (Table 10 evaluation). The inhibition at 1.25 ppm in test [6] (Table 10 evaluation) stood at 25%. Besides, the mortality at 1.25 ppm in test [6] (Table 10 evaluation) was found to be 0%. Further, in test [6] (Table 10 evaluation), the inhibition at 2.5 ppm turned out to be 42%. For the same molecule, the mortality at 2.5 ppm in test [6] (Table 10 evaluation) came to 0%. In addition, the pest or weed control at 5 ppm in test [7] was found to be 84%; in test [2] (Table 7a, 5% dust, 5 ppm, BOTTOM container, read-out: Percent Control) it was 25%; in test [2] (Table 7a, 5% dust, 5 ppm, MIDDLE container, read-out: Percent Control), 75%; in test [2] (Table 7a, 5% dust, 5 ppm, TOP container, read-out: Percent Control), 99%; in test [4] (168 h, Table 3a, 5% dust, inoculation 1 week post-treatment) it was 99%; in test [4] (336 h, Table 3a, 5% dust, inoculation 2 weeks post-treatment) it was 99%. The pest or weed control at 5 ppm in test [4] (672 h, Table 3a, 5% dust, inoculation 4 weeks post-treatment) was determined as 82%. The pest or weed control at 0.078 ppm in test [3] was found to be 8%. Further, in test [3] (Table 2, Application Rate 0.156 ppm), the pest or weed control at 0.156 ppm was 31%. Also, the pest or weed control at 0.312 ppm in test [3] came to 78%. Moreover, the pest or weed control at 2000 ppm in test [8] (foliar, Table 8, rate 2000 ppm) was 25%.

Regarding `FC(F)=C(F)CCSc1nnc(SCc2ccc(Br)cc2)s1` [Compound 33, 2-(4-bromophenylmethylthio)-5-(3,4,4-trifluoro-3-butenylthio)-1,3,4-thiadiazole], the pest or weed control at 2.5 ppm in test [5] came out at 46%. Besides, in test [6] (Table 9 screen), the inhibition at 5 ppm was found to be 100% and the mortality at 5 ppm was 100%. Further, in test [6] (Table 10 evaluation), the mortality at 5 ppm amounted to 100%, the inhibition at 1.25 ppm was determined as 100%, the mortality at 1.25 ppm came to 100% and the inhibition at 2.5 ppm amounted to 100%. Moreover, the mortality at 2.5 ppm in test [6] (Table 10 evaluation) turned out to be 100%. For the same molecule, the pest or weed control at 5 ppm in test [7] stood at 52%. Moreover, in test [3], the pest or weed control at 0.312 ppm is 38%, the pest or weed control at 0.625 ppm is 70%, the pest or weed control at 1.25 ppm is 84% and the pest or weed control at 2.5 ppm was 97%. For the same molecule, the pest or weed control at 2500 ppm in test [8] (Table 8, rate 2500 ppm) came to 17%.

In general, inhibition refers to how much of the control response was suppressed. As a reminder, the mortality is the share of the test organisms that died.
